pIC50: −log10 of the molar value.
Biological target: T1, Human MTHFD2 (Homo sapiens, UniProt P13995)
T1 construct: residues 36-350 in Uniport ID P13995; His6 (N); made in house; host or cells: E. coli
T1 sequence (P13995 36-350): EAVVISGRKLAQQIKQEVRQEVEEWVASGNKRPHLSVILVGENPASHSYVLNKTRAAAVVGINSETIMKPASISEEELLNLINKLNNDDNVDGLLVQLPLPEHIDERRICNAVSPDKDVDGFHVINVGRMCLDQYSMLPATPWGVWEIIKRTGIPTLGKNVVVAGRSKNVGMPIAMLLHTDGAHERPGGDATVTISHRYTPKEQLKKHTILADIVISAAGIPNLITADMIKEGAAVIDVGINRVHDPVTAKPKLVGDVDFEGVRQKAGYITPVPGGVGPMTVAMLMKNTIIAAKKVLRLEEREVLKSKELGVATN
Assay: MTHFD2 Activity Assay (dehydrogenase activity, diaphorase/resazurin coupled fluorescence)
Type: biochemical
Conditions: inhibitory activity (IC50 and/or binding constant); 0.2 nM MTHFD2, 11 concentrations
In short: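 His6-tagged MTHFD2 (res. 36-350), E. coli-expressed, at 0.2 nM preincubated with compound 15 min in Hepes pH 8.0/MgCl2/KH2PO4 buffer; 70 μM CH2-THF, 1 mM NAD+ added with resazurin/diaphorase, 30 min, EDTA stop. Resorufin fluorescence (ex 525/em 598); IC50 from 11-point 4-parameter fit.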

Compound	pIC50
Cn1c(N[C@@H]2CC[C@@H](O)C2)nc2c1c(=O)n(Cc1ccc(C(F)(F)F)cc1)c(=O)n2C (single isomer, unassigned) [Example 144, 8-((1R,3R)-3-hydroxycyclopentylamino)-3,7-dimethyl-1-(4-(trifluoromethyl)benzyl)-1H-purine-2,6(3H,7H)-dione or 8-((1S,3S)-3-hydroxycyclopentylamino)-3,7-dimethyl-1-(4-(trifluoromethyl)benzyl)-1H-purine-2,6(3H,7H)-dione]	5.30 to 6.00
Cn1c(NCCCO)nc2c1c(=O)n(Cc1ccc(Cl)c(CO)c1)c(=O)n2C [Example 166, 1-{[4-chloro-3-(hydroxymethyl)phenyl]methyl}-8-[(3-hydroxypropyl)amino]-3,7-dimethyl-2,3,6,7-tetrahydro-1H-purine-2,6-dione]	< 5.00
C[C@@H](CCO)Nc1nc2c(c(=O)n(Cc3ccc4sccc4c3)c(=O)n2C)n1C [Example 51, 1-(1-benzothiophen-5-ylmethyl)-8-{[(2S)-4-hydroxybutan-2-yl]amino}-3,7-dimethyl-2,3,6,7-tetrahydro-1H-purine-2,6-dione]	6.00 to 8.00
Cn1c(Nc2ccncc2)nc2c1c(=O)n(Cc1ccc(Cl)c(Cl)c1)c(=O)n2C [Example 125, 1-(3,4-dichlorobenzyl)-3,7-dimethyl-8-(pyridin-4-ylamino)-1H-purine-2,6(3H,7H)-dione]	6.00 to 8.00
C[C@H](O)CNc1nc2c(c(=O)n(Cc3ccc(F)c(F)c3)c(=O)n2C)n1C [Example 30, 1-[(3,4-difluorophenyl)methyl]-8-{[(2S)-2-hydroxypropyl]amino}-3,7-dimethyl-2,3,6,7-tetrahydro-1H-purine-2,6-dione]	< 5.00
Cn1c(NC2CCNCC2)nc2c1c(=O)n(Cc1ccc(Cl)c(Cl)c1)c(=O)n2C [Example 35, 1-[(3,4-dichlorophenyl)methyl]-3,7-dimethyl-8-[(piperidin-4-yl)amino]-2,3,6,7-tetrahydro-1H-purine-2,6-dione]	5.30 to 6.00
Cn1c([C@@H](N)Cc2ccncc2)nc2c1c(=O)n(Cc1cc3c(Cl)cccc3[nH]1)c(=O)n2C [Example 449, (S)-8-(1-amino-2-(pyridin-4-yl)ethyl)-1-((4-chloro-1H-indol-2-yl)methyl)-3,7-dimethyl-1H-purine-2,6(3H,7H)-dione]	6.00 to 8.00
COc1cc(Cn2c(=O)c3c(ncn3C)n(C)c2=O)ccc1Cl [Example 249, 1-(4-chloro-3-methoxybenzyl)-3,7-dimethyl-1H-purine-2,6(3H,7H)-dione]	< 5.00
Cn1c(Nc2cccc(C3CCC(O)C3)n2)nc2c1c(=O)n(Cc1cc3c(Cl)cccc3[nH]1)c(=O)n2C (centres unmarked) [Example 351, 1-((4-chloro-1H-indol-2-yl)methyl)-8-(6-(3-hydroxycyclopentyl)pyridin-2-ylamino)-3,7-dimethyl-1H-purine 2,6(3H,7H)-dione]	6.00 to 8.00
Cn1c(Nc2cccc([C@H]3C[C@@H]3CO)n2)nc2c1c(=O)n(Cc1cc3c(Cl)cccc3[nH]1)c(=O)n2C (racemic) [Example 335, (±)-trans-1-((4-chloro-1H-indol-2-yl)methyl)-8-((6-(-2-(hydroxymethyl)cyclopropyl)pyridin-2-yl)amino)-3,7-dimethyl-1H-purine-2,6(3H,7H)-dione]	5.30 to 6.00
Cn1c(N[C@H]2C[C@H](C(=O)O)C2)nc2c1c(=O)n(Cc1ccc(Cl)c(Cl)c1)c(=O)n2C [Example 266]	6.00 to 8.00
COCC1CCC(Nc2nc3c(c(=O)n(Cc4ccc(Cl)c(Cl)c4)c(=O)n3C)n2C)C1 (centres unmarked) [Example 267, 1-(3,4-dichlorobenzyl)-8-(3-(methoxymethyl)cyclopentylamino)-3,7-dimethyl-1H-purine-2,6(3H,7H)-dione]	5.30 to 6.00
Cn1c(=O)n(Cc2ccc(Cl)c(Cl)c2)c(=O)c2[nH]c(NCCCO)nc21 [Example 90, 1-[(3,4-dichlorophenyl)methyl]-8-[(3-hydroxypropyl)amino]-3-methyl-2,3,6,7-tetrahydro-1H-purine-2,6-dione]	5.30 to 6.00
Cn1c(Nc2cc[nH]c(=O)n2)nc2c1c(=O)n(Cc1cc3cc(Cl)ccc3[nH]1)c(=O)n2C [Example 206, 1-((5-chloro-1H-indol-2-yl)methyl)-3,7-dimethyl-8-(2-oxo-1,2-dihydropyrimidin-4-ylamino)-1H-purine-2,6(3H,7H)-dione]	6.00 to 8.00
Cc1ccc2[nH]c(Cn3c(=O)c4c(nc(CCO)n4C)n(C)c3=O)cc2c1 [Example 210, 8-(2-hydroxyethyl)-3,7-dimethyl-1-((5-methyl-1H-indol-2-yl)methyl)-1H-purine-2,6(3H,7H)-dione]	5.30 to 6.00
Cn1c(Nc2ccncc2)nc2c1c(=O)n(Cc1cc3c(Cl)ccc(Cl)c3[nH]1)c(=O)n2C [Example 477, 1-((4,7-dichloro-1H-indol-2-yl)methyl)-3,7-dimethyl-8-(pyridin-4-ylamino)-1H-purine-2,6(3H,7H)-dione]	6.00 to 8.00
Cn1c(NC2CCNC(=O)C2)nc2c1c(=O)n(Cc1cc3ccccc3[nH]1)c(=O)n2C (racemic) [Example 215, (±)-1-((1H-indol-2-yl)methyl)-3,7-dimethyl-8-(2-oxopiperidin-4-ylamino)-1H-purine-2,6(3H,7H)-dione]	6.00 to 8.00
Cn1c(Nc2cc[nH]c(=O)n2)nc2c1c(=O)n(Cc1ccc(Cl)c(Cl)c1)c(=O)n2C [Example 140, 1-(3,4-dichlorobenzyl)-3,7-dimethyl-8-(2-oxo-1,2-dihydropyrimidin-4-ylamino)-1H-purine-2,6(3H,7H)-dione]	6.00 to 8.00
Cn1c(Nc2ccnc([C@H]3C[C@H]3C(=O)O)c2)nc2c1c(=O)n(Cc1cc3c(Cl)cccc3[nH]1)c(=O)n2C (racemic) [Example 368, (±)-cis-2-(4-((1-((4-chloro-1H-indol-2-yl)methyl)-3,7-dimethyl-2,6-dioxo-2,3,6,7-tetrahydro-1H-purin-8-yl)amino)pyridin-2-yl)cyclopropanecarboxylic acid]	6.00 to 8.00
COc1cc(Cn2c(=O)c3c(nc(N[C@@H]4CCC[C@H]4O)n3C)n(C)c2=O)ccc1Cl [Example 103, 1-[(4-chloro-3-methoxyphenyl)methyl]-8-{[(1R,2R)-2-hydroxycyclopentyl]amino}-3,7-dimethyl-2,3,6,7-tetrahydro-1H-purine-2,6-dione]	5.30 to 6.00
CCC(N)c1nc2c(c(=O)n(Cc3cc4c(Cl)cccc4[nH]3)c(=O)n2C)n1C (centres unmarked) [Example 434, 8-(1-aminopropyl)-1-[(4-chloro-1H-indol-2-yl)methyl]-3,7-dimethyl-purine-2,6-dione]	6.00 to 8.00
C[C@H](N)c1nc2c(c(=O)n(Cc3cc4c(Cl)cccc4[nH]3)c(=O)n2C)n1C (single isomer, unassigned) [Example 435, (S)-8-(1-aminoethyl)-1-((4-chloro-1H-indol-2-yl)methyl)-3,7-dimethyl-1H-purine-2,6(3H,7H)-dione or (R)-8-(1-aminoethyl)-1-((4-chloro-1H-indol-2-yl)methyl)-3,7-dimethyl-1H-purine-2,6(3H,7H)-dione]	6.00 to 8.00
Cn1c(N[C@H]2CCC[C@@H](O)C2)nc2c1c(=O)n(Cc1ccc(Cl)c(Cl)c1)c(=O)n2C (racemic) [Example 173, (±)-1-(3,4-dichlorobenzyl)-8-((cis)-3-hydroxycyclohexylamino)-3,7-dimethyl-1H-purine-2,6(3H,7H)-dione]	6.00 to 8.00
